Experimental data from article PMC3388080 (PLoS ONE, 2012).

Test system: male Sprague-Dawley rats
Experiment: EEG/EMG/Tcore/LMA telemetry sleep study 2 (EMPA vs ZOL)
Assay type: in vivo, rat
Settings: for REM:NR ratio: 6 h after dosing
Method: All rodent electroencephalograph (EEG) studies were performed at SRI International. Three groups of eight male Sprague-Dawley rats (300±25 g; Charles River, Wilmington, MA) were implanted with chronic recording devices (F40-EET, Data Sciences Inc., St Paul, MN) for continuous recordings of EEG, electromyograph (EMG), core body temperature (Tcore), and LMA via telemetry as previously described. Data recording and scoring were performed as previously reported (see also Supplemental Material and Methods). The EEG and EMG data were scored in 10 sec epochs for waking (W), rapid eye movement sleep (REM), and non-REM sleep (NR). Tcore and LMA (counts per minute) were analyzed as hourly means. Data from the EEG studies are reported in hourly means such that the hourly time ZT1 refers to the hour between time points ZT0 and ZT1.
For each of the three separate studies, a repeated measures counter-balanced design was employed in which each rat received five separate dosings. […] All dosings were administered ip in a volume of 2 ml/kg. A minimum of 3 d elapsed between doses. Dosing occurred during the middle of the rats’ normal active period at the start of ZT19 and was typically completed within 10 min. Animals were continuously recorded for 6 h prior to dosing and for 18 h following dosing.

CCN(Cc1cccnc1)C(=O)CN(c1ccc(OC)nc1)S(=O)(=O)c1ccccc1C [EMPA, N-(Ethyl-2-[(6-methoxy-pyridin-3-yl)-(toluene-2-sulfonyl)-amino]-N-pyridin-3-ylmethyl-acetamide)]
LMA (in words) (100 mg/kg ip, across 6 h, vs vehicle): LMA was decreased | cumulative NR (in words) (100 mg/kg ip, first 4 and 6 h periods): increased cumulative NR | NR bout duration (6 h Average, 30 mg/kg ip): 1.43 ±0.14 | REM bout duration (6 h Average, 30 mg/kg ip): 0.88 ± 0.09 | W bout duration (6 h Average, 30 mg/kg ip): 5.35 ±0.77 | NR bout duration (6 h Average, 100 mg/kg ip): 1.28 ± 0.12^+ | REM bout duration (6 h Average, 100 mg/kg ip): 0.96 ± 0.09 | W bout duration (6 h Average, 100 mg/kg ip): 3.54 ± 0.20 | NR bout duration (6 h Average, EMPA 10 mg/kg ip): 1.34 ± 0.17 | REM bout duration (6 h Average, EMPA 10 mg/kg ip): 0.79 ± 0.09 | W bout duration (6 h Average, EMPA 10 mg/kg ip): 5.56 ± 0.52 | Number of NR bouts (6 h Total, 30 mg/kg ip): 68.80 ± 7.18 | Number of REM bouts (6 h Total, 30 mg/kg ip): 22.10 ± 3.30^+ | Number of W bouts (6 h Total, 30 mg/kg ip): 51.30 ± 4.95 | Number of NR bouts (6 h Total, 100 mg/kg ip): 84.80 ± 5.06 | Number of REM bouts (6 h Total, 100 mg/kg ip): 20.00 ± 1.93^+ | Number of W bouts (6 h Total, 100 mg/kg ip): 65.10 ± 3.37 | Number of NR bouts (6 h Total, EMPA 10 mg/kg ip): 68.80 ±6.22 | Number of REM bouts (6 h Total, EMPA 10 mg/kg ip): 18.10 ± 2.28^+ | Number of W bouts (6 h Total, EMPA 10 mg/kg ip): 50.20 ±5.70 | REM:NR ratio (10 mg/kg ip (EMPA)): 0.16±0.019^+ | REM:NR ratio (30 mg/kg ip): 0.21±0.032^+ | REM:NR ratio (100 mg/kg ip): 0.18±0.027^+ | NR bout duration (ZT19, 30 mg/kg ip): 1.27± 0.15^+ | Number of NR bouts (ZT19, 30 mg/kg ip): 9.90 ± 1.60 | Number of REM bouts (ZT19, 30 mg/kg ip): 1.20± 0.49 | Number of W bouts (ZT19, 30 mg/kg ip): 6.20± 0.98 | REM bout duration (ZT19, 30 mg/kg ip): 0.62± 0.22 | W bout duration (ZT19, 30 mg/kg ip): 11.89± 5.40 | NR bout duration (ZT19, 100 mg/kg ip): 1.11± 0.19^+ | Number of NR bouts (ZT19, 100 mg/kg ip): 10.80± 2.39 | Number of REM bouts (ZT19, 100 mg/kg ip): 0.90± 0.46 | Number of W bouts (ZT19, 100 mg/kg ip): 9.80± 2.48 | REM bout duration (ZT19, 100 mg/kg ip): 0.86± 0.19 | W bout duration (ZT19, 100 mg/kg ip): 13.14± 5.99 | NR bout duration (ZT19, EMPA 10 mg/kg ip): 1.60± 0.25^+ | Number of NR bouts (ZT19, EMPA 10 mg/kg ip): 7.40 ± 2.00 | Number of REM bouts (ZT19, EMPA 10 mg/kg ip): 1.60± 0.67 | Number of W bouts (ZT19, EMPA 10 mg/kg ip): 4.60± 1.25 | REM bout duration (ZT19, EMPA 10 mg/kg ip): 0.64± 0.15 | W bout duration (ZT19, EMPA 10 mg/kg ip): 16.42± 5.00 | NR bout duration (ZT20, 30 mg/kg ip): 1.50± 0.28^+ | Number of NR bouts (ZT20, 30 mg/kg ip): 12.50± 2.18 | Number of REM bouts (ZT20, 30 mg/kg ip): 4.40± 0.96^+ | Number of W bouts (ZT20, 30 mg/kg ip): 8.30± 1.27 | REM bout duration (ZT20, 30 mg/kg ip): 0.87± 0.13 | W bout duration (ZT20, 30 mg/kg ip): 9.83± 5.62 | NR bout duration (ZT20, 100 mg/kg ip): 1.86± 0.28^+ | Number of NR bouts (ZT20, 100 mg/kg ip): 16.50± 2.03 | Number of REM bouts (ZT20, 100 mg/kg ip): 5.00± 1.12^+ | Number of W bouts (ZT20, 100 mg/kg ip): 11.60± 1.11 | REM bout duration (ZT20, 100 mg/kg ip): 0.88± 0.08 | W bout duration (ZT20, 100 mg/kg ip): 2.46± 0.62 | NR bout duration (ZT20, EMPA 10 mg/kg ip): 1.15± 0.15^+ | Number of NR bouts (ZT20, EMPA 10 mg/kg ip): 14.00±2.52 | Number of REM bouts (ZT20, EMPA 10 mg/kg ip): 4.10± 1.11 | Number of W bouts (ZT20, EMPA 10 mg/kg ip): 10.70± 1.85 | REM bout duration (ZT20, EMPA 10 mg/kg ip): 0.90± 0.18 | W bout duration (ZT20, EMPA 10 mg/kg ip): 9.37± 5.67 | NR bout duration (ZT21, 30 mg/kg ip): 1.52± 0.21 | Number of NR bouts (ZT21, 30 mg/kg ip): 15.90± 2.21 | Number of REM bouts (ZT21, 30 mg/kg ip): 5.80± 1.35 | Number of W bouts (ZT21, 30 mg/kg ip): 11.70± 1.55 | REM bout duration (ZT21, 30 mg/kg ip): 1.01 ± 0.11 | W bout duration (ZT21, 30 mg/kg ip): 3.04± 0.83 | NR bout duration (ZT21, 100 mg/kg ip): 1.17± 0.11 | Number of NR bouts (ZT21, 100 mg/kg ip): 17.00± 2.91 | Number of REM bouts (ZT21, 100 mg/kg ip): 4.10± 1.08 | Number of W bouts (ZT21, 100 mg/kg ip): 12.40± 2.01 | REM bout duration (ZT21, 100 mg/kg ip): 1.18 ± 0.14^+ | W bout duration (ZT21, 100 mg/kg ip): 8.88± 5.82 | NR bout duration (ZT21, EMPA 10 mg/kg ip): 1.12± 0.17 | Number of NR bouts (ZT21, EMPA 10 mg/kg ip): 13.50± 2.15 | Number of REM bouts (ZT21, EMPA 10 mg/kg ip): 3.40± 0.73 | Number of W bouts (ZT21, EMPA 10 mg/kg ip): 10.20± 1.61 | REM bout duration (ZT21, EMPA 10 mg/kg ip): 0.69 ± 0.11 | W bout duration (ZT21, EMPA 10 mg/kg ip): 6.55± 2.67 | NR bout duration (ZT22, 30 mg/kg ip): 1.38± 0.15 | Number of NR bouts (ZT22, 30 mg/kg ip): 12.20± 1.65 | Number of REM bouts (ZT22, 30 mg/kg ip): 5.30± 1.09 | Number of W bouts (ZT22, 30 mg/kg ip): 9.20± 1.32 | REM bout duration (ZT22, 30 mg/kg ip): 0.83± 0.13 | W bout duration (ZT22, 30 mg/kg ip): 4.90± 1.31 | NR bout duration (ZT22, 100 mg/kg ip): 1.32± 0.31 | Number of NR bouts (ZT22, 100 mg/kg ip): 18.40± 2.70 | Number of REM bouts (ZT22, 100 mg/kg ip): 4.80± 0.98 | Number of W bouts (ZT22, 100 mg/kg ip): 13.20± 1.76 | REM bout duration (ZT22, 100 mg/kg ip): 0.84± 0.17 | W bout duration (ZT22, 100 mg/kg ip): 2.84± 0.49 | NR bout duration (ZT22, EMPA 10 mg/kg ip): 1.33± 0.24 | Number of NR bouts (ZT22, EMPA 10 mg/kg ip): 12.70± 1.87 | Number of REM bouts (ZT22, EMPA 10 mg/kg ip): 3.30± 0.58 | Number of W bouts (ZT22, EMPA 10 mg/kg ip): 8.20± 1.73 | REM bout duration (ZT22, EMPA 10 mg/kg ip): 0.84± 0.16 | W bout duration (ZT22, EMPA 10 mg/kg ip): 7.34± 2.67 | NR bout duration (ZT23, 30 mg/kg ip): 0.90± 0.11^+ | Number of NR bouts (ZT23, 30 mg/kg ip): 10.80± 2.35 | Number of REM bouts (ZT23, 30 mg/kg ip): 3.40± 1.24 | Number of W bouts (ZT23, 30 mg/kg ip): 8.00± 1.56 | REM bout duration (ZT23, 30 mg/kg ip): 0.75± 0.21 | W bout duration (ZT23, 30 mg/kg ip): 11.46± 5.56 | NR bout duration (ZT23, 100 mg/kg ip): 1.10± 0.20 | Number of NR bouts (ZT23, 100 mg/kg ip): 12.30± 1.25 | Number of REM bouts (ZT23, 100 mg/kg ip): 3.20± 0.63 | Number of W bouts (ZT23, 100 mg/kg ip): 8.60± 1.01 | REM bout duration (ZT23, 100 mg/kg ip): 0.96± 0.19 | W bout duration (ZT23, 100 mg/kg ip): 4.89 ±0.81 | NR bout duration (ZT23, EMPA 10 mg/kg ip): 1.39± 0.18 | Number of NR bouts (ZT23, EMPA 10 mg/kg ip): 11.00± 1.40 | Number of REM bouts (ZT23, EMPA 10 mg/kg ip): 3.40± 0.65 | Number of W bouts (ZT23, EMPA 10 mg/kg ip): 7.90± 1.27 | REM bout duration (ZT23, EMPA 10 mg/kg ip): 0.85± 0.09 | W bout duration (ZT23, EMPA 10 mg/kg ip): 6.10± 1.02 | NR bout duration (ZT24, 30 mg/kg ip): 1.45± 0.49 | Number of NR bouts (ZT24, 30 mg/kg ip): 7.50± 1.61 | Number of REM bouts (ZT24, 30 mg/kg ip): 2.00± 0.94 | Number of W bouts (ZT24, 30 mg/kg ip): 7.10± 1.63 | REM bout duration (ZT24, 30 mg/kg ip): 0.69± 0.13 | W bout duration (ZT24, 30 mg/kg ip): 16.83± 7.31 | NR bout duration (ZT24, 100 mg/kg ip): 1.04± 0.17 | Number of NR bouts (ZT24, 100 mg/kg ip): 9.40± 2.24 | Number of REM bouts (ZT24, 100 mg/kg ip): 2.00± 1.01 | Number of W bouts (ZT24, 100 mg/kg ip): 8.40± 1.92 | REM bout duration (ZT24, 100 mg/kg ip): 0.49± 0.09 | W bout duration (ZT24, 100 mg/kg ip): 14.62± 6.09 | NR bout duration (ZT24, EMPA 10 mg/kg ip): 1.25± 0.18^+ | Number of NR bouts (ZT24, EMPA 10 mg/kg ip): 10.00± 2.22 | Number of REM bouts (ZT24, EMPA 10 mg/kg ip): 2.30± 0.98 | Number of W bouts (ZT24, EMPA 10 mg/kg ip): 7.80± 1.76 | REM bout duration (ZT24, EMPA 10 mg/kg ip): 0.54± 0.10 | W bout duration (ZT24, EMPA 10 mg/kg ip): 9.17± 2.45 | NR or REM latency (in words) (administered in the mid-dark phase): no effect on either NR or REM latency | number of W bouts (in words) (all three concentrations (10, 30, 100 mg/kg ip)): increased the number of W bouts | Tcore (in words) (high concentration tested, across 6 h): decreased Tcore | NR during the subsequent light period (in words) (light period): No significant effects on NR
